Measurements taken from patent US5281602A, “Angiotensin II receptor blocking 2,3,6-substituted 5,6,7,8-tetrahydro-pyrido[4,3-D]pyrimidin-4(3H)-ones” (American Cyanamid Company, priority 1993, dated 1994).
Several values for one entry are separate records, joined by “and”; a condition that tells them apart may be missing. Equal values may be shown once.

What was measured:
[1] = tested on: ANGIOTENSIN II (A11) VASOPRESSOR RESPONSE; test: AII Challenge: blockade of angiotensin II vasopressor response in conscious SHR; type: in vivo, rat (Conscious Male Okamoto-Aoki SHR)
Text: By administering a compound of this invention to a rat, and then challenging with angiotensin II, a blockage of the vasopressor response is realized.
Conscious Male Okamoto-Aoki SHR, 16-20 weeks old, weighing approximately 330 g are purchased from Charles River Labs (Wilmington, Mass.). Conscious rats are restrained in a supine position with elastic tape. The area at the base of the tail is locally anesthetized by subcutaneous infiltration with 2% procaine. The ventral caudal artery and vein are isolated, and a cannula made of polyethylene (PE) 10-20 tubing (fused together by heat) is passed into the lower abdominal aorta and vena cava, respectively. The cannula is secured, heparinized (1,000 I.U./ml), sealed and the wound is closed. The animals are placed in plastic restraining cages in an upright position. The cannula is attached to a Statham P23Db pressure transducer, and pulsatile blood pressure is recorded to 10-15 minutes with a Gould Brush recorder. (Chan et al., (Drug Development Res., 18:75-94, 1989).
Angiotensin II (human sequence, Sigma Chem. Co., St. Louis, Mo.) of 0.05 and 0.1 ug/kg i.v. is injected into all rats (predosing response). Then a test compound, vehicle or a known angiotensin II antagonist is administered i.v., i.p. or orally to each set of rats. […] The vasopressor response of angiotensin II is measured for the increase in systolic blood pressure in mmHg. The percentage of antagonism or blockade of the vasopressor response of angiotensin II by a compound is calculated using the vasopressor response (increase in systolic blood pressure) of angiotensin II of each rat predosing the compound as 100%. A compound is considered active if at 30 mg/kg i.v. it antagonized at least 50% of the response.

Angiotension II Receptor = test: Receptor Binding Assay: competition with [^125 I] (Sar^1,Ile^8) AngII on microsomal membranes; conditions: pH 7.4, 60 min, room temperature
Procedure: Binding of [^125 I] (Sar^1,Ile^8) AngII
The binding of [^125 I] (Sar^1,Ile^8) AngII to microsomal membranes is initiated by the addition of reconstituted membranes (1:10 vols.) in freshly made 50.0 mMTris.HCl buffer, pH 7.4 containing 0.25% heat inactivated bovine serum albumin (BSA):80 ul membrane protein (10 to 20 ug/assay) to wells already containing 100 ul of incubation buffer (as described above) and 20 ul [^125 I] (Sar^1,Ile^8) AngII (Specific Activity, 2200 Ci/mmole). Non-specific binding is measured in the presence of 1.0 uM unlabeled (Sar^1,Ile^8) AngII, added in 20 ul volume. Specific binding for [^125 I] (Sar^1,Ile^8) AngII is greater than 90%. In competition studies, experimental compounds are diluted in dimethylsulfoxide (DMSO) and added in 20 ul to wells before the introduction of tissue membranes. This concentration of DMSO is found to have no negative effects on the binding of [^125 I] (Sar^1,Ile^8) AngII to the membranes. Assays are performed in triplicate. […] Presoaking the filter sheet in 0.1% polyethylenemine in normal saline (PEI/Saline) greatly reduces the radioactivity retained by the filter blanks. […] The filters are removed from the filter grid and counted in a Parkard® Cobra Gamma Counter for 1 min. […] The binding data are analyzed by the non-linear interactive "LUNDON-1" program (LUNDON SOFTWARE Inc., Cleveland, Ohio U.S.A.). […]

[2] = 15 mg/kg IV, AII 0.05 mcg/kg IV, 30 min post dose
[3] = 15 mg/kg IV, AII 0.05 mcg/kg IV, 60 min post dose
[4] = 15 mg/kg IV, AII 0.05 mcg/kg IV, 90 min post dose
[5] = 15 mg/kg IV, AII 0.1 mcg/kg IV, 30 min post dose
[6] = 15 mg/kg IV, AII 0.1 mcg/kg IV, 60 min post dose
[7] = 15 mg/kg IV, AII 0.1 mcg/kg IV, 90 min post dose
[8] = under second '15 IV' line, AII 0.05 mcg/kg IV, 120 min
[9] = under second '15 IV' line, AII 0.05 mcg/kg IV, 180 min
[10] = under second '15 IV' line, AII 0.1 mcg/kg IV, 120 min
[11] = under second '15 IV' line, AII 0.1 mcg/kg IV, 180 min

`CCCCc1nc2c(c(=O)n1Cc1ccc(-c3ccccc3-c3nnn[nH]3)cc1)CN(C(=O)OCc1ccccc1)CC2` [Example 7, Phenylmethyl 2-butyl-3,5,7,8-tetrahydro-4-oxo-3-[[2'-(1H-tetrazol-5-yl)[1,1' -biphenyl] -4-yl]methyl]pyrido[4,3-d]pyrimidin-6(4H)-carboxylate] was tested, and the “Average % Inhibition (angiotensin blockage) of AII vasopressor response” value (shortened to “Average % Inhibition”) [1, 2] was 71%, the “Average Change (systolic blood pressure response to AII)” value (“Average Change” below) [1, 2] was 11 mmHg and the “Average % Inhibition” value [1, 3] was 33%. The “Average Change” value [1, 3] was 25 mmHg, the “Change (single reading, systolic blood pressure)” value ([1]; 15 mg/kg IV, AII 0.05 mcg/kg IV, 60 min post dose, 15 mg/kg) was 30 mmHg and 20 mmHg and the “Average % Inhibition” value [1, 4] was 31%. The “Average Change” value [1, 4] was 26 mmHg, the “Change (single reading, systolic blood pressure)” value ([1]; 15 mg/kg IV, AII 0.05 mcg/kg IV, 90 min post dose, 15 mg/kg) was 30 mmHg and 22 mmHg and the “Average % Inhibition” value [1, 5] was 59%. The “Average Change” value [1, 5] was 17.5 mmHg, the “Change (single reading, systolic blood pressure)” value ([1]; 15 mg/kg IV, AII 0.1 mcg/kg IV, 30 min post dose, 15 mg/kg) was 15 mmHg and 20 mmHg and the “Average % Inhibition” value [1, 6] was 11%. For the same compound, the “Average Change” value [1, 6] was 38 mmHg, the “Change (single reading, systolic blood pressure)” value ([1]; 15 mg/kg IV, AII 0.1 mcg/kg IV, 60 min post dose, 15 mg/kg) was 40 mmHg and 36 mmHg and the “Average % Inhibition” value [1, 7] was 0%. The “Average Change” value [1, 7] was 42.5 mmHg, the “Change (single reading, systolic blood pressure)” value ([1]; 15 mg/kg IV, AII 0.1 mcg/kg IV, 90 min post dose, 15 mg/kg) was 40 mmHg and 45 mmHg and the “Response After A11 (systolic blood pressure)” value (“Response After A11” for short) ([1]; 15 mg/kg IV, after AII 0.05 mcg/kg IV, 30 min post dose, 15 mg/kg) was 192 mmHg and 175 mmHg. For the same compound, the “Response After A11” value ([1]; 15 mg/kg IV, after AII 0.05 mcg/kg IV, 60 min post dose, 15 mg/kg) was 200 mmHg and 190 mmHg, the “Response After A11” value ([1]; 15 mg/kg IV, after AII 0.05 mcg/kg IV, 90 min post dose, 15 mg/kg) was 200 mmHg and 182 mmHg and the “Response After A11” value ([1]; 15 mg/kg IV, after AII 0.1 mcg/kg IV, 30 min post dose, 15 mg/kg) was 190 mmHg and 180 mmHg. The “Response After A11” value ([1]; 15 mg/kg IV, after AII 0.1 mcg/kg IV, 60 min post dose, 15 mg/kg) was 215 mmHg and 206 mmHg, the “Response After A11” value ([1]; 15 mg/kg IV, after AII 0.1 mcg/kg IV, 90 min post dose, 15 mg/kg) was 210 mmHg and 200 mmHg and the “Control Before A11 (systolic blood pressure)” value (from here on “Control Before A11”) ([1]; 15 mg/kg IV, before AII 0.05 mcg/kg IV, 30 min post dose, 15 mg/kg) was 185 mmHg and 160 mmHg. For the same compound, the “Control Before A11” value ([1]; 15 mg/kg IV, before AII 0.05 mcg/kg IV, 60 min post dose) was 170 mmHg, the “Control Before A11” value ([1]; 15 mg/kg IV, before AII 0.05 mcg/kg IV, 90 min post dose, 15 mg/kg) was 170 mmHg and 160 mmHg and the “Control Before A11” value ([1]; 15 mg/kg IV, before AII 0.1 mcg/kg IV, 30 min post dose, 15 mg/kg) was 175 mmHg and 160 mmHg. For the same compound, the “Control Before A11” value ([1]; 15 mg/kg IV, before AII 0.1 mcg/kg IV, 60 min post dose, 15 mg/kg) was 175 mmHg and 170 mmHg, the “Control Before A11” value ([1]; 15 mg/kg IV, before AII 0.1 mcg/kg IV, 90 min post dose, 15 mg/kg) was 170 mmHg and 155 mmHg and the “Average % Inhibition” value [1, 8] was 87%. The “Average Change” value [1, 8] was 5 mmHg, the “Average % Inhibition” value [1, 9] was 33% and the “Average Change” value [1, 9] was 25 mmHg. For the same compound, the “Change (single reading, systolic blood pressure)” value [1, 9] was 25 mmHg, the “Average % Inhibition” value [1, 10] was 81% and the “Average Change” value [1, 10] was 8 mmHg. For the same compound, the “Change (single reading, systolic blood pressure)” value [1, 10] was 6 mmHg and 10 mmHg, the “Average % Inhibition” value [1, 11] was 32% and the “Average Change” value [1, 11] was 29 mmHg. The “Change (single reading, systolic blood pressure)” value [1, 11] was 38 mmHg and 20 mmHg, the “Response After A11” value ([1]; under second '15 IV' line, after AII 0.05 mcg/kg IV, 120 min) was 195 mmHg and 185 mmHg and the “Response After A11” value ([1]; under second '15 IV' line, after AII 0.05 mcg/kg IV, 180 min) was 200 mmHg and 160 mmHg. The “Response After A11” value ([1]; under second '15 IV' line, after AII 0.1 mcg/kg IV, 120 min) was 176 mmHg and 180 mmHg, the “Response After A11” value ([1]; under second '15 IV' line, after AII 0.1 mcg/kg IV, 180 min) was 215 mmHg and 160 mmHg and the “Control Before A11” value ([1]; under second '15 IV' line, before AII 0.05 mcg/kg IV, 120 min) was 185 mmHg. The “Control Before A11” value ([1]; under second '15 IV' line, before AII 0.05 mcg/kg IV, 180 min) was 175 mmHg and 135 mmHg, the “Control Before A11” value ([1]; under second '15 IV' line, before AII 0.1 mcg/kg IV, 120 min) was 170 mmHg and the “Control Before A11” value ([1]; under second '15 IV' line, before AII 0.1 mcg/kg IV, 180 min) was 177 mmHg and 140 mmHg. For the same compound, the IC50 (Angiotension II Receptor) was 660 nM.
